Here are results for 3 molecules from patent publication US8703825B2, “Compounds, use thereof as medicaments, and method of preparation thereof” (Universite de Lorraine, priority 2008, dated 2014).

What all share (assay type): cell-based
In assay [1] the test system is P. aeruginosa overexpressing an efflux pump (PaR1). In words: MIC by microdilution, clinical isolate. To be noted: Pseudomonas aeruginosa. As for the experimental part: (§1) The study also included 5 clinical isolates, obtained from rectal samples and/or from haemoculture: • […] E. coli (EcR1), • methicillin-resistant S. aureus (mecA gene) (SaR1), • vancomycin-resistant E. faecium (vanB gene) (EfR1), • E. faecalis resistant to teicoplanin and to vancomycin (vanA gene) (EfR2), and • P. aeruginosa overexpressing an efflux pump (PaRl).
(§2) The isolates were selected on the basis of their resistance profile. The resistance profiles were determined on VITEK2 (BioMérieux, France).
(§3) The bacteria are cultivated either on Mueller-Hinton agar (Difco, 225250), or in Mueller-Hinton broth (Difco, 275730), at 35° C. [Grare M, Mourer M, Fontanay S, Regnouf-de-Vains J B, Finance C, Duval R E. In vitro activity of para-guanidinoethylcalix[4]arene against susceptible and antibiotic-resistant Gram-negative and Gram-positive bacteria. J. Antimicrob Chemother. 2007; 60: 575-81].
(§4) The various molecules tested were prepared in the form of aqueous solution at 10^−2 mol/L. The solutions used for the biological tests are freshly prepared, and stored for a week at most, at 4° C. The solutions are filtered through a filter with pores of 0.22 μm (Millex®GP; 0.22 μm; Millipore; France) before each test.
(§5) Procedure for determining the Minimum Inhibitory Concentration (MIC)
(§6) The minimum inhibitory concentrations (MIC) were determined by the standardized method of microdilution in liquid medium (96-well microplate, U-shaped bottom, Greiner), in Mueller-Hinton broth, with a final inoculum of 10^5-10^6 CFU/mL, depending on the bacterial species, in accordance with the recommendations of the CLSI.
(§7) For the determination of MIC, bacterial suspensions are prepared from an isolated colony, taken from a Mueller-Hinton agar, taken up in 5 mL of Mueller-Hinton broth. After 24 h of growth, the bacterial suspensions are diluted in sterile distilled water in order to obtain an inoculum of 10^5-10^6 CFU/mL. The purity of the bacterial suspensions is tested by isolation on agar and Gram staining.
(§8) The results are the mean value of 4 independent experiments.
For orientation: Broth dilution looks for growth in wells or tubes with falling amounts of substance.

The subject of assay [2] is vancomycin-resistant E. faecium (vanB gene) (EfR1). In words: MIC by microdilution, clinical isolate. To be noted: Enterococcus faecium. As for the experimental part: as §1, §2, §3, §4, §5, §6, §7, §8
Assay [3] concerns penicillinase-producing E. coli (EcR1). In words: MIC by microdilution, clinical isolate. To be noted: Escherichia coli. As for the experimental part:
as §1, §2, §3, §4, §5, §6, §7, §8

The test system of assay [4] is MRSA (mecA gene), methicillin-resistant S. aureus (SaR1). In words: MIC by microdilution, clinical isolate. To be noted: Staphylococcus aureus. As to the method: as §1, §2, §3, §4, §5, §6, §7, §8
The test system of assay [5] is E. faecalis resistant to teicoplanin and to vancomycin (vanA gene) (EfR2). In words: MIC by microdilution, clinical isolate. To be noted: Enterococcus faecalis. As for the experimental part:
as §1, §2, §3, §4, §5, §6, §7, §8

In assay [6] the test system is Gram-positive and Gram-negative bacteria (reference strains and clinical isolates). In words: Antibacterial activity overall (MIC determination). To be noted: summary of MIC results.
Excerpt: (§9) According to the joint recommendations: • of the “Comite de l′Antibiogramme de la Société Française de Microbiologie” (Antibiogram Committee of the French Society of Microbiology) (CA-SFM) [CA-SFM. Communique 2007 (Edition of January 2007). http://www.sfm.asso.fr] and, • of the “Clinical and Laboratory Standards Institute” (CLSI, formerly “National Committee for Clinical Laboratory Standards” or NCCLS) [NCCLS. 2003. Methods for dilution antimicrobial susceptibility tests for bacteria that grow aerobically; approved standard M7-A6, 6th ed. National Committee for Clinical Laboratory Standards, Wayne, Pa., USA.], five reference bacterial strains were used for the study: Escherichia coli ATCC 25922, Pseudomonas aeruginosa ATCC 27853, Staphylococcus aureus ATCC 25923 & ATCC 29213 and Enterococcus faecalis ATCC 29212.
as §1, §5, §6, §7, §8

Assay [7] relates to Escherichia coli ATCC 25922. In words: MIC by microdilution in liquid medium (CLSI / CA-SFM). To be noted: Escherichia coli.
Excerpt: as §9, §3, §4, §5, §6, §7, §8

The subject of assay [8] is Pseudomonas aeruginosa ATCC 27853. The assay is described as above.
Excerpt: as §9, §3, §4, §5, §6, §7, §8

Assay [9] relates to Staphylococcus aureus ATCC 29213. The assay is described as above. To be noted: for Selectivity index (SI=IC50/MIC): S. aureus ATCC 29213, HaCaT cell lines, 24 h exposure; for MIC: Staphylococcus aureus.
Excerpt: as §9, §3, §4, §5, §6, §7, §8

For assay [10], the system named is Enterococcus faecalis ATCC 29212. The description is as above.
Excerpt: as §9, §3, §4, §5, §6, §7, §8

In assay [11] the test system is Staphylococcus aureus ATCC 25923. The description is as above. To be noted: Staphylococcus aureus.
Excerpt: as §9, §3, §4, §5, §6, §7, §8

[12] abbreviates: clinical isolate, E. faecium (vanB gene), read-out: MIC.
[13] abbreviates: clinical isolate, penicillinase-producing E. coli, read-out: MIC.
[14] abbreviates: clinical isolate, MRSA (mecA gene), read-out: MIC.
The mark [15] stands for this setting: clinical isolate, E. faecalis (vanA gene), read-out: MIC.
Setting [16] is: ATCC25922, E. coli ATCC 25922, reference strain, read-out: MIC.
Setting [17] is: ATCC27853, P. aeruginosa ATCC 27853, reference strain, read-out: MIC.
The mark [18] stands for this setting: ATCC29213, S. aureus ATCC 29213, reference strain, read-out: MIC.
The mark [19] stands for this setting: ATCC29212, E. faecalis ATCC 29212, reference strain, read-out: MIC.
The mark [20] stands for this setting: ATCC25923, S. aureus ATCC 25923, reference strain, read-out: MIC.

The structures appear in SMILES notation. Converted amounts (≈) assume the structure as drawn. “Also recorded” adds a separate entry of the source. Where two headings read alike, the source gives them in different places.

Take `[H]/N=C(\N/C(=N/[H])NCCCCCCNC(=N)NC(=N)Nc1ccc(Cl)cc1)Nc1ccc(Cl)cc1` [CHX, chlorhexidine]: the MIC stood at 8 µg/mL (≈ 15.8 µM) in assay [1]; 1 µg/mL (≈ 1.98 µM) in assay [2] (setting [12]); 0.5 µg/mL (≈ 0.989 µM) in assay [3] (setting [13]); 0.5 µg/mL (≈ 0.989 µM) in [4] (setting [14]); 2 µg/mL (≈ 3.96 µM) in [5] (setting [15]); 0.25 µg/mL (≈ 0.495 µM) in assay [7] (setting [16]). Also, the MIC in [8] (setting [17]) amounted to 8 µg/mL (≈ 15.8 µM); in [9] (setting [18]), 0.5 µg/mL (≈ 0.989 µM); in [10] (setting [19]), 2 µg/mL (≈ 3.96 µM); in [11] (setting [20]) it was 0.5 µg/mL (≈ 0.989 µM). Further, the “antibacterial activity (in words)” value in [6] is “broad-spectrum antibacterial activity”. The “Selectivity index (SI=IC50/MIC)” value in [9] is given as 32-64.

Turning to `N=C(N)c1ccc(OCCCCCCOc2ccc(C(=N)N)cc2)cc1` [HX, hexamidine], the MIC was determined as 64 µg/mL (≈ 181 µM) in assay [1]; 2 µg/mL (≈ 5.64 µM) in assay [2]; 8 µg/mL (≈ 22.6 µM) in assay [3]; 2 µg/mL (≈ 5.64 µM) in assay [4] (MRSA); 4 µg/mL (≈ 11.3 µM) in [5]; 8 µg/mL (≈ 22.6 µM) in assay [7] (ATCC25922). The MIC in assay [8] (ATCC27853) was 32 µg/mL (≈ 90.3 µM); in assay [9] (ATCC29213), below 1 µg/mL; in assay [10] (ATCC29212), 2 µg/mL (≈ 5.64 µM); in assay [11] (ATCC25923), 4 µg/mL (≈ 11.3 µM). In addition, the “Selectivity index (SI=IC50/MIC)” value in assay [9] is given as “≧32”.

With `N=C(N)NCCc1ccc(OCCCCCCOc2ccc(CCNC(=N)N)cc2)cc1` [compound 6, 1,6-bis(4-(2-guanidinoethyl)phenoxy)hexane], the minimum inhibitory concentration (MIC) is 32 µg/mL (≈ 72.6 µM) in [1]; 8 µg/mL (≈ 18.2 µM) in assay [2] (setting [12]); 4 µg/mL (≈ 9.08 µM) in assay [3] (setting [13]); below 1 µg/mL in assay [4] (setting [14]); 16 µg/mL (≈ 36.3 µM) in assay [5] (setting [15]); 4 µg/mL (≈ 9.08 µM) in [7] (setting [16]). Also, the MIC in [8] (setting [17]) stood at 16 µg/mL (≈ 36.3 µM); in [9] (setting [18]) it was 0.25 µg/mL (≈ 0.567 µM); in [10] (setting [19]), 8 µg/mL (≈ 18.2 µM); in [11] (setting [20]) it was 0.5 µg/mL (≈ 1.13 µM). The “antibacterial activity (in words)” value in assay [6] is “maintains comparable activity on the clinical isolates; also recorded: better overall than hexamidine and is comparable to that of chlorhexidine”. The “Selectivity index (SI=IC50/MIC)” value in assay [9] was 16-32.

The term MIC denotes the lowest concentration found to suppress growth.
